Measured values published in patent US12371428B2 (Exelixis, Inc., priority 2019, dated 2025).
Where a name gives a salt, the structure may show the parent alone. Read-outs that look alike come from different tables or passages of the source.

Columns and labels:
[1] = target: Met (phospho-Met, HGF-stimulated PC-3 prostate cancer cells) (Homo sapiens (Human), UniProt P08581); experiment: Met autophosphorylation ELISA in PC-3 cells (Example F); type: cell-based; conditions: cellular activity; Met autophosphorylation ELISA in PC-3 cells; read-out: c-Met IC50
Outline: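 Compounds were tested on HGF-stimulated PC-3 cells. After 24 h culture and 3 h serum starvation, cells got compound for 1 h and 100 ng/mL HGF for 10 min, and Met tyrosine phosphorylation was measured by ELISA.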

[2] = target: Mer (phospho-Mer, MERTK-transfected 293A cells) (Homo sapiens (Human), UniProt Q12866); experiment: Mer autophosphorylation ELISA in transient transfected 293A cells (Example H); type: cell-based; conditions: cellular activity; Mer autophosphorylation ELISA in transient transfected 293A cells
Outline: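 Human MERTK transiently transfected into 293A cells; compounds as 8-point dose curve in serum-free medium (0.3% DMSO final), 1 h. Lysates assayed by phospho-Mer sandwich ELISA against phospho-Mer standard; DMSO = 100%, reference inhibitor = 0% activity; IC50 from 4-parameter logistic fit.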

[3] = target: Human KDR (residues 790-1356) (Homo sapiens (Human), UniProt P35968); experiment: Human KDR kinase assay, HTRF KinEase (Example B-2); type: biochemical
Method: Kinase activity and compound inhibition were also investigated using the HTRF® KinEase assay (Cisbio Cat #62TKOPEB) per manufacturer's instructions. In short, compounds were delivered in 300 nL volumes at 10 different concentrations in DMSO (3% final) to empty 384-well assay plates (Corning cat #3824). A mixture of enzyme, […] biotynlated peptide substrate, and buffer in 10 μL volume was added. The assay was started upon the addition of ATP (at Km). The 10 μL reaction was incubated at room temperature. The reaction was stopped upon the addition of detection buffer containing streptavidin-XL665 ([…]) and TK antibody-Eu3+([…]). After a 60 min incubation at room temperature, the fluorescence at 665 nm and 620 nm was read on an Envision microplate reader (Perkin Elmer).
Kinase activity normalized to DMSO (100% activity) and reference compound at […] and (0% activity) was calculated using the fluorescence ratio […]. IC50 values were calculated by nonlinear regression analysis using a 4-parameter logistic curve fit in ActivityBase XE (IDBS).
Example B-2: Human KDR (residues 790-1356; CarnaBio, 0.1 ng/well) was also incubated with enzymatic buffer (Cisbio) supplemented with 5 mM MgCl2, 1 mM MnCl2, and 1 mM DTT. The mixture was added to the pre-plated compounds. The reaction was initiated upon addition of ATP at Km (4.0 μM). The reaction was incubated at room temperature for 40 min and stopped upon the addition of SA-XL665 and TK-antibody both diluted in EDTA-containing kinase detection buffer (Cisbio). The kinase activity was calculated as stated above and the IC50 values were reported.

[4] = target: Human MER (residues 528-999) (Homo sapiens (Human), UniProt Q12866); experiment: Human Mer kinase assay, HTRF KinEase (Example C-2); type: biochemical
Outline: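 HTRF KinEase TK assay with MER 528-999 (1 ng/well) in enzymatic buffer plus 5 mM MgCl2 and 1 mM DTT, biotinylated peptide substrate and ATP at Km (40 μM), 3% DMSO final, 60 min at room temperature. Stopped with EDTA detection mix (SA-XL665, TK antibody-Eu3+), read at 665/620 nm after 60 min; IC50 from 10-point 4-parameter fit, normalized to DMSO and 1 μM reference.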

[5] = target: Human MET (residues 956-1390) (Homo sapiens (Human), UniProt P08581); experiment: Human Met kinase assay, HTRF KinEase (Example D-2); type: biochemical; conditions: read-out: c-Met IC50
Outline: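 HTRF KinEase assay on MET residues 956-1390 (0.1 ng/well) in buffer with 5 mM MgCl2, 1 mM DTT and 1 mM MnCl2, with biotinylated peptide substrate, ATP at Km, 10 compound concentrations and 3% DMSO final, run 40 min at room temperature. The […] signal was normalized to DMSO and to 1 μM reference compound, and IC50 came from a 4-parameter logistic fit.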

[6] = protocol of Example B-2 (other compounds)
[7] = protocol of Example C-2 (other compounds)
[8] = protocol of Example D-2 (other compounds)

Human MET (residues 956-1390), sequence (P08581 956-1390): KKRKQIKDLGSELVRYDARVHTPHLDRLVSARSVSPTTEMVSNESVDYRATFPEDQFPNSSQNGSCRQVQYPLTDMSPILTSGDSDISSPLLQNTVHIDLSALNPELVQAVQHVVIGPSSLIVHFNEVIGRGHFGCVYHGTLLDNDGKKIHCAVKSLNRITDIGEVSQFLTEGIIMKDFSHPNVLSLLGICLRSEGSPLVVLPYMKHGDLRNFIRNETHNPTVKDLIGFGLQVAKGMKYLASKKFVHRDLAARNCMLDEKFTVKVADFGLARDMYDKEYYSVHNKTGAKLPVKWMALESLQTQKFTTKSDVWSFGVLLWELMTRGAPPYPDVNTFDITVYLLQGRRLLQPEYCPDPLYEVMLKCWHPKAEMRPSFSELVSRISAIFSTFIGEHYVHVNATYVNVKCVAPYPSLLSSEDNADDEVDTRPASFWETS
Mer (phospho-Mer, MERTK-transfected 293A cells), sequence (Q12866 21-999): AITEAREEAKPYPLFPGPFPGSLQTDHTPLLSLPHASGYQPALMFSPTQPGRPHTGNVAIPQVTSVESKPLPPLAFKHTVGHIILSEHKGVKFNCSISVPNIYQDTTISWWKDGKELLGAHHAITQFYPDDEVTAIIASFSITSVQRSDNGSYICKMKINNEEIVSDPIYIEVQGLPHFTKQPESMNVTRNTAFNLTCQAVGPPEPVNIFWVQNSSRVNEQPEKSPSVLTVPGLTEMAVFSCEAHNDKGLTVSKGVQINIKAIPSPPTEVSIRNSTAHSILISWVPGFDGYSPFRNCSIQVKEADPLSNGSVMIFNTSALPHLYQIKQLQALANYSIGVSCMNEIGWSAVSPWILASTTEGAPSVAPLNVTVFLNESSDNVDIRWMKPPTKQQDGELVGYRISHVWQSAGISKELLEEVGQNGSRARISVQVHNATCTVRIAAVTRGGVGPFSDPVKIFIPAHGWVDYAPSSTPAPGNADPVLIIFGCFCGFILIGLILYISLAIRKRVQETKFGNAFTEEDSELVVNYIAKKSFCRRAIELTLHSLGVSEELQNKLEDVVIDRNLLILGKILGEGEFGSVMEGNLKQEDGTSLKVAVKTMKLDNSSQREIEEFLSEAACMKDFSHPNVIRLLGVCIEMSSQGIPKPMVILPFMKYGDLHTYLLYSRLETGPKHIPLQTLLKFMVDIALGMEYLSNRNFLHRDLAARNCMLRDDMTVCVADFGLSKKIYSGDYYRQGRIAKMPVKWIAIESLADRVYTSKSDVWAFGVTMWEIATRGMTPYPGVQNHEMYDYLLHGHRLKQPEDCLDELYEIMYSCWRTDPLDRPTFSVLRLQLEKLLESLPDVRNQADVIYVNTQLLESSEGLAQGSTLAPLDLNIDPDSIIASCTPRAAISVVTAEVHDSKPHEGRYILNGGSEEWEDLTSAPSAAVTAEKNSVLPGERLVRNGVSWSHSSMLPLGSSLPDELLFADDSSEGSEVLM
Human MER (residues 528-999), sequence (Q12866 528-999): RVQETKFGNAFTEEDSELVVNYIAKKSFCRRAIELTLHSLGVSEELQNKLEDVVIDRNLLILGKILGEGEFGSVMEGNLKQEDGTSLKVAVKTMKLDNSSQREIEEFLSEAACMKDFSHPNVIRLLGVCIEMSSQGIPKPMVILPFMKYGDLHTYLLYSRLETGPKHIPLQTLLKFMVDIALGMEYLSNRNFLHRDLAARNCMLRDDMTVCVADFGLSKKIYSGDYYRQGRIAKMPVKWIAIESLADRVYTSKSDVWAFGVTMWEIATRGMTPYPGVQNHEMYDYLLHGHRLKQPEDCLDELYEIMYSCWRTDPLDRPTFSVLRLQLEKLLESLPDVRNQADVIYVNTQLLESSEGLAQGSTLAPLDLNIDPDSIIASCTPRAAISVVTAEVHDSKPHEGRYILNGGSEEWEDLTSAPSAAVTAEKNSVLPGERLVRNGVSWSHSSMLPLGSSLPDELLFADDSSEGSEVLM
Human KDR (residues 790-1356), sequence (P35968 790-1356): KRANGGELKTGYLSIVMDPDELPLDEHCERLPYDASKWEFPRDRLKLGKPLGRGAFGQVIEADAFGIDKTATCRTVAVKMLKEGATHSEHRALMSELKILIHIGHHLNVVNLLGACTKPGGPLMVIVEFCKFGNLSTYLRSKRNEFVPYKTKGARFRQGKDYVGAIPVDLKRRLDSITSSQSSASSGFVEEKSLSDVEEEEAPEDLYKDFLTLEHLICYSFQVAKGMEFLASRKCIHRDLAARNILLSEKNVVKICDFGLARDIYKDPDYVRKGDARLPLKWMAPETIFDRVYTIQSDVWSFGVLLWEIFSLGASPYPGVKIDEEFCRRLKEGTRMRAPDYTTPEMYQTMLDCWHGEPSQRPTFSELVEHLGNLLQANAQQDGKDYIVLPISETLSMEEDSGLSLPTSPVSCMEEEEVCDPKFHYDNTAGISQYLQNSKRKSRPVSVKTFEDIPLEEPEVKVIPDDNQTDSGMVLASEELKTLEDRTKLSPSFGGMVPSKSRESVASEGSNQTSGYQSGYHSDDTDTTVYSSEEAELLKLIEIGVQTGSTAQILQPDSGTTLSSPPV
Met (phospho-Met, HGF-stimulated PC-3 prostate cancer cells), sequence (P08581 25-1390): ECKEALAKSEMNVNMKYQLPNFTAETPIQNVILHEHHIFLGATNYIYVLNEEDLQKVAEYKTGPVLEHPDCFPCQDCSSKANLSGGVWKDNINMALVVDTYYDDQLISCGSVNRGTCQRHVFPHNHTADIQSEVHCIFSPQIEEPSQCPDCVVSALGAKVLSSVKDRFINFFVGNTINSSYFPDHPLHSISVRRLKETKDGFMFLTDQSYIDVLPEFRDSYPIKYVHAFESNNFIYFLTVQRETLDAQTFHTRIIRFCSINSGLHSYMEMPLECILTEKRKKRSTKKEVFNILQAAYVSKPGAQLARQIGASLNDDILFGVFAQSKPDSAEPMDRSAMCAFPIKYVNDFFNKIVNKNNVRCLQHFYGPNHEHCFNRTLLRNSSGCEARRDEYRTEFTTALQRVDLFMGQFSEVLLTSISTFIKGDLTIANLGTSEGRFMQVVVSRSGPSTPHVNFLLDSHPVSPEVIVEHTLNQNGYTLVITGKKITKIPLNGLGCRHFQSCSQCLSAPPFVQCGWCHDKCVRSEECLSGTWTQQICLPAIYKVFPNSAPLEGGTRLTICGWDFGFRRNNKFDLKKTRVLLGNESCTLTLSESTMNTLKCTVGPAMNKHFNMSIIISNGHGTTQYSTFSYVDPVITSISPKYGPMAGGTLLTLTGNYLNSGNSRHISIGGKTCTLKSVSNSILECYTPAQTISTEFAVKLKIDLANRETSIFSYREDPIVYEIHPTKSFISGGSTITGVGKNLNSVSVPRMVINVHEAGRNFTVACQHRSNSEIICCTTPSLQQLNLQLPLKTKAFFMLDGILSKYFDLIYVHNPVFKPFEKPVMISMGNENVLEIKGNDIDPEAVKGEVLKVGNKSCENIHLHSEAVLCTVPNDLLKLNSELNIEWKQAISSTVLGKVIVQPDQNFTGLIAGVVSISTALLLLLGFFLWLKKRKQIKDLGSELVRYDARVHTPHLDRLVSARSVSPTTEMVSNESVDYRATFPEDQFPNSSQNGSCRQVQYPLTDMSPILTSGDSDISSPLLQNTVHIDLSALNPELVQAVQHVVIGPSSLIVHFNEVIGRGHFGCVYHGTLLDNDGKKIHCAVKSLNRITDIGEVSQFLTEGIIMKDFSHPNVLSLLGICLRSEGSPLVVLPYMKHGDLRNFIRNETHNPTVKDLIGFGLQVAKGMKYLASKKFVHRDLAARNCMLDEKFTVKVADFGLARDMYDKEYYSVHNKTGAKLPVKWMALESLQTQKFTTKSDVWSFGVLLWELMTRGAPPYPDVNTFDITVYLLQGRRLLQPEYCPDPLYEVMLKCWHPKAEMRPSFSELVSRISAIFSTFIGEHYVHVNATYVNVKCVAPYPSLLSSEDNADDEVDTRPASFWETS

Row | SMILES | IC50 [1] | IC50 [2] | IC50 [3, 6] | IC50 [4, 7] | IC50 [5, 8] | IC50 ([3]; protocol of Example B-2) | IC50 ([4]; protocol of Example C-2) | IC50 ([5]; protocol of Example D-2)
1 | COc1cc2nccc(Oc3ccc(NC(=O)c4cn(-c5cnn(C)c5)c(C)c(-c5ccc(F)cc5)c4=O)cc3)c2nc1OC [Compound 141, N-[4-[(6,7-Dimethoxy-1,5-naphthyridin-4-yl)oxy]phenyl]-5-(4-fluorophenyl)-6-methyl-1-(1-methylpyrazol-4-yl)-4-oxopyridine-3-carboxamide] | < 100 nM | < 100 nM | > 300 nM | < 100 nM | < 100 nM | – | – | –
2 | COc1cnc2c(Oc3ccc(NC(=O)c4cn(C(C)(C)C)c(C)c(-c5ccc(F)cc5)c4=O)cc3)ccnc2c1 [Compound 165, 1-tert-Butyl-5-(4-fluorophenyl)-N-[4-[(7-methoxy-1,5-naphthyridin-4-yl)oxy]phenyl]-6-methyl-4-oxopyridine-3-carboxamide] | – | < 100 nM | > 300 nM | < 100 nM | < 100 nM | – | – | –
3 | COc1ccc2nccc(Oc3ccc(NC(=O)c4c[nH]c(=O)n(-c5ccc(F)cc5)c4=O)cc3F)c2n1 [Compound 103, N-[3-Fluoro-4-[(6-methoxy-1,5-naphthyridin-4-yl)oxy]phenyl]-3-(4-fluorophenyl)-2,4-dioxo-1H-pyrimidine-5-carboxamide] | – | – | > 300 nM | < 100 nM | < 100 nM | – | – | –
4 | COc1ccc2nccc(Oc3ccc(NC(=O)c4c[nH]c(=O)n(-c5ccc(F)cc5)c4=O)cc3)c2n1 [Compound 339, 3-(4-fluorophenyl)-N-[4-[(6-methoxy-1,5-naphthyridin-4-yl)oxy]phenyl]-2,4-dioxo-1H-pyrimidine-5-carboxamide] | – | – | > 300 nM | 100 to 300 nM | 100 to 300 nM | – | – | –
5 | CCOc1nc(C)c(-c2ccc(F)cc2)c(O)c1C(=O)Nc1ccc(Oc2ccnc3cc(OC)c(OC)nc23)c(F)c1 [Compound 365, N-[4-[(6,7-dimethoxy-1,5-naphthyridin-4-yl)oxy]-3-fluorophenyl]-2-ethoxy-5-(4-fluorophenyl)-4-hydroxy-6-methylpyridine-3-carboxamide] | – | – | > 300 nM | 100 to 300 nM | > 300 nM | – | – | –
6 | COc1cc2nccc(Oc3ccc(NC(=O)c4cnc(NC(=O)OC(C)(C)C)n(-c5ccc(F)cc5)c4=O)cc3F)c2nc1OC [Compound 344, tert-butyl N-[5-[[4-[(6,7-dimethoxy-1,5-naphthyridin-4-yl)oxy]-3-fluorophenyl]icarbamoyl]-1-(4-fluorophenyl)-6-oxopyrimidin-2-yl]carbamate] | – | – | 100 to 300 nM | < 100 nM | 100 to 300 nM | – | – | –
7 | Cc1c(-c2ccc(F)cc2)c(=O)c(C(=O)Nc2ccc(Oc3ccnc4cc(C(F)(F)F)cnc34)c(F)c2)cn1C(C)C [Compound 152, 5-(4-Fluorophenyl)-N-[3-fluoro-4-[[7-(trifluoromethyl)-1,5-naphthyridin-4-yl]oxy]phenyl]-6-methyl-4-oxo-1-propan-2-ylpyridine-3-carboxamide] | – | – | > 300 nM | > 300 nM | > 300 nM | – | – | –
8 | Cc1ncc(C(=O)Nc2ccc(Oc3ccnc4cc(C(F)(F)F)cnc34)cc2)c(O)c1-c1ccc(F)cc1 [Compound 150, 5-(4-Fluorophenyl)-4-hydroxy-6-methyl-N-[4-[[7-(trifluoromethyl)-1,5-naphthyridin-4-yl]oxy]phenyl]pyridine-3-carboxamide] | – | – | > 300 nM | < 100 nM | < 100 nM | – | – | –
9 | COc1ccc(-c2cn(C)cc(C(=O)Nc3ccc(Oc4ccnc5cc(OC)c(OC)nc45)c(F)c3)c2=O)cc1 [Compound 34, N-[4-[(6,7-Dimethoxy-1,5-naphthyridin-4-yl)oxy]-3-fluorophenyl]-5-(4-methoxyphenyl)-1-methyl-4-oxopyridine-3-carboxamide hydrochloride] | – | – | < 100 nM | < 100 nM | 100 to 300 nM | – | – | –

Next, values leading:

Row | IC50 [1] | IC50 [2] | IC50 [3, 6] | IC50 [4, 7] | IC50 [5, 8] | IC50 ([3]; protocol of Example B-2) | IC50 ([4]; protocol of Example C-2) | IC50 ([5]; protocol of Example D-2) | SMILES
10 | – | – | – | – | – | > 300 nM | 100 to 300 nM | > 300 nM | COc1nc2c(Oc3ccc(NC(=O)c4cnc(C)c(-c5ccc(F)cc5C)c4O)cc3F)ccnc2cc1C(C)C [Compound 591, N-[3-Fluoro-4-[(6-methoxy-7-propan-2-yl-1,5-naphthyridin-4-yl)oxy]phenyl]-5-(4-fluoro-2-methylphenyl)-4-hydroxy-6-methylpyridine-3-carboxamide]
11 | < 100 nM | < 100 nM | 100 to 300 nM | < 100 nM | 100 to 300 nM | – | – | – | COc1cc2nccc(Oc3ccc(NC(=O)c4cc(Br)c(C)n(-c5ccc(F)cc5)c4=O)cc3F)c2nc1OC [Compound 366, 5-bromo-N-[4-[(6,7-dimethoxy-1,5-naphthyridin-4-yl)oxy]-3-fluorophenyl]-1-(4-fluorophenyl)-6-methyl-2-oxopyridine-3-carboxamide]
12 | – | – | – | – | – | 100 to 300 nM | < 100 nM | > 300 nM | C=C(C)c1cc2nccc(Oc3ccc(NC(=O)c4cnc(C)c(-c5ccc(F)cc5)c4O)cc3F)c2nc1OC [Compound 452, N-[3-fluoro-4-[(6-methoxy-7-prop-1-en-2-yl-1,5-naphthyridin-4-yl)oxy]phenyl]-5-(4-fluorophenyl)-4-hydroxy-6-methylpyridine-3-carboxamide]
13 | – | – | > 300 nM | > 300 nM | > 300 nM | – | – | – | COc1cc2nccc(Oc3ccc(NC(=O)c4c(C)nc(OC)c(-c5ccc(F)cc5)c4OC)cc3F)c2nc1OC [Compound 444, N-[4-[(6,7-dimethoxy-1,5-naphthyridin-4-yl)oxy]-3-fluorophenyl]-5-(4-fluorophenyl)-4,6-dimethoxy-2-methylpyridine-3-carboxamide]
14 | – | – | > 300 nM | < 100 nM | < 100 nM | – | – | – | COc1cc2nccc(Oc3ccc(NC(=O)C4=C5CCCN5CC(c5ccc(F)cc5)C4=O)cc3F)c2nc1OC (single isomer, unassigned; enantiomer 2) [Compound 375, N-[4-[(6,7-dimethoxy-1,5-naphthyridin-4-yl)oxy]-3-fluorophenyl]-6-(4-fluorophenyl)-7-oxo-2,3,5,6-tetrahydro-1H-indolizine-8-carboxamide, enantiomer 2]
15 | – | – | – | – | – | > 300 nM | < 100 nM | > 300 nM | COc1nc2c(Oc3ccc(NC(=O)c4c(C)nc(C)c(-c5ccc(F)cc5)c4O)cc3F)ccnc2cc1C(C)C [Compound 592, N-[3-Fluoro-4-[(6-methoxy-7-propan-2-yl-1,5-naphthyridin-4-yl)oxy]phenyl]-5-(4-fluorophenyl)-4-hydroxy-2,6-dimethylpyridine-3-carboxamide]
16 | – | – | – | – | – | 100 to 300 nM | < 100 nM | > 300 nM | C=C(C)c1cc2nccc(Oc3ccc(NC(=O)c4c(C)nc(C)c(-c5ccc(F)cc5)c4O)cc3F)c2nc1OC [Compound 453, N-[3-fluoro-4-[(6-methoxy-7-prop-1-en-2-yl-1,5-naphthyridin-4-yl)oxy]phenyl]-5-(4-fluorophenyl)-4-hydroxy-2,6-dimethylpyridine-3-carboxamide]
17 | – | – | – | – | – | > 300 nM | < 100 nM | > 300 nM | COc1nc2c(Oc3ccc(NC(=O)c4cnc(C)c(-c5ccc(F)cc5)c4O)cc3F)ccnc2cc1C(C)C [Compound 590, N-[3-Fluoro-4-[(6-methoxy-7-propan-2-yl-1,5-naphthyridin-4-yl)oxy]phenyl]-5-(4-fluorophenyl)-4-hydroxy-6-methylpyridine-3-carboxamide]
